Reference: patent US20250276066A1, “METHODS, COMPOSITIONS AND COMPOUNDS FOR TREATING AGE-RELATED DISEASES AND CONDITIONS” (GERO PTE. LTD., priority 2021, published 2025)
Read-outs that look alike come from different tables or passages of the source.

Columns and labels:
[1] = tested on: C. elegans; experiment: C. elegans lifespan screening (survival) assay; assay type: in vivo, Caenorhabditis elegans; conditions: for Mean LS ext., %: mean lifespan extension vs control, doses (uM); for Mean LS*: mean lifespan, dose uM: Panobinostat 1, Entinostat 10, Topotecan 5, PI-103 10, PHA-793887 10, Triptolide 10, KU-0063794 10, Trichostatin A 2, control 22.2 d
Description: • 1. […] Then, with the help of linear gene-wise regression, we identified the transcriptomic aging signature, the list of genes that have statistically significant association with age rescaled by lifespan (the first list). • 3. Genes in the aging signature that have positive correlation with age rescaled by lifespan are over-expressed in late life of the animals, and if a gene's correlation is negative its gene expression decreases with age. • 4. […] The identified aging signature represents a vector of the aging-related changes of gene expression. […] This was done by projecting out all gene expression changes along the aging signature. • 6. After that, by gene-wise linear regression, we identified the list of genes that had statistically significant correlation with lifespan of long-lived strains. That list represents the PI3K-null signature. Genes in the PI3K-null signature that have positive correlation with lifespan are over-expressed in long-lived strains, and vise versa, genes with negative correlations have lower gene expression levels in long-lived mutants with respect to the control lines. • 7. […] Therefore, we would affect the aging process and either slow-down it or reverse it. • 8. We combined those lists, and identified the lists of their human orthologs. • 9. The inhibition of these genes or/and the proteins translated from those genes in humans will also produce life-extending effects. • 10. The predictive value of the aging signature was previously experimentally tested in paper. Along the lines of paper, to test the predictive value of the PI3K-null signature, we identified novel life-extending pharmacological interventions by comparing this signatures with gene expression profile changes in response to pharmacologic perturbations from the Connectivity Map (CMAP) database. Using the PI3K-null signature, we predicted perturbagen-compounds opposing the transcriptomic signature distinguishing long-lived C. elegans mutant strains with a slow aging rate from short-lived strains with a fast aging rate (see Table […] and T1b). To eliminate the confounding effect of different biological ages of nematodes in experimental cohorts, we applied the algorithm developed earlier. From the top of predicted compounds, we selected 8 compounds for a follow-up lifespan screening in C. elegans assay (see Figure F1, Table T2). • 11. We successfully tested the selected compounds in C. elegans survival assay (see Figure F1, Table T2). All 8 compounds produced a significant lifespan extension effect (according to the Log-rank Mantel-Cox method, all results are with p<0.05). Therefore, we experimentally validated the PI3K-null signature's pipeline for the identification of new life-extending compounds. • 12. […] CDK7, CHEK2, CAPN1, CTSB, HSP90AB1, HSP90AA1, HSPA5, NFKB1, NPC1, PABPC1, ABCB11, ABCB1, PLK1, PLK3, ADRA2A, ADRA2C, ADRA2B, TUBB6, SENP8, SENP6, SENP7, MMP14, MMP13, MMP8, MMP3, MMP1, MAPKAPK2, CTSL, CTSK, CTSS, ATXN2, TBXAS1, CREBBP, PDGFRA, FLT4, FLT1, KDR, PDGFRB, FLT3, KIT, CSF1R, IKBKB, IKBKE, PGGT1B, FAAH, GFER, MAPK14, MAPK12, PRKAA1, ABCG2, ADAM17, BACE2, BACE1, TUBB6, CA7, CA2, CA1, CA5A, CA12, CA9, CA4, CTSB, FEN1, HDAC1, HDAC2, HDAC3, CBX1, SLC6A4, SLC6A2, SLC6A3, PPARD, PPARG, PPARA, PSEN2, HTR7, ADRA1B, SMN2, FYN, SRC, LCK, LYN, TARDBP, CLK2, CLK4, USP2, GBA, RECQL, BLM, WRN, CDK2, PRKAG3, TFPI, LTA4H, DPP7, BACE2, BACE1, CAPN1, CTSB, IGF1R, INSR, EYA2, HSPA5, NFKB1, TCF7L2, TARDBP, BRD4. • 13. […] Lifespan assays were conducted at 20° C., as described previously. Briefly, synchronous cultures were initiated by lysis of gravid hermaphrodites in alkaline hypochlorite. Worms were selected at the L4 larval stage, placed 50 worms per plate, and transferred at 1- to 2-day intervals onto fresh plates during days 1-7, and at 2- to 3-day intervals after that. […]

[2] = patient; cited from earlier work
[3] = tested on: mice given Doxorubicin; experiment: Example 33: doxorubicin-induced liver damage (plasma AST); conditions: mouse, in vivo
Method: Doxorubicin if administered by mice reduces total body weight and induces expression of FOXO4 foci and IL-6 in the liver.
On the indicated time points, whole blood samples are collected in a Microvette with Lithium Heparin (Sarstedt) for plasma separation and spun for 10 min at 4.6×g. The (clear) supernatant is transferred into regular 1.5 ml tubes and spun again for 5 min at 4.6×g. The supernatants are transferred again into 1.5 ml tubes, snap frozen in liquid N2 and stored at −80° C. [AST] is measured using an AST Activity Assay Kit (Sigma). The samples are incubated with 100 μl reaction mix in a 96 well plate and place at 37° C. The absorbance at 450 nm is determined after 2 minutes for baseline analysis and after 40 minutes for a final analysis. [Urea] is measured using a QuantiChrom Urea Assay Kit (Gentaur). The samples are incubated in 200 μl reaction mix for 10 minutes at room temperature before absorbance is measured at 520 nm. [Creatinine] is measured using Creatinine Assay Kit (Sigma). Samples are incubated with 50 μl reaction mix at 37° C. for 60 minutes and the absorbance is measured at 570 nm. Ratios comparing plasma values after treatment compared to baseline are determined and plotted as % over baseline in scatter plots.

[4] = tested on: CIA-induced DBA/1J mice; experiment: Example 30: collagen-induced arthritis (CIA); assay type: in vivo; conditions: 0.2 mg/kg
[5] = tested on: D. melanogaster; conditions: cited from earlier work
[6] = tested on: Caenorhabditis elegans; conditions: not replicated in another study; cited from earlier work

Structure (SMILES) | Mean LS ext., % [1] | Mean LS* [1] | further results
Cc1[nH]c2ccccc2c1CCNCc1ccc(/C=C/C(=O)NO)cc1 [Compound 1, Panobinostat] | 8.1% | 24 days | 
Nc1ccccc1NC(=O)c1ccc(CNC(=O)OCc2cccnc2)cc1 [Compound 2, Entinostat] | 8.6% | 24.1 days | 
CC[C@@]1(O)C(=O)OCc2c1cc1n(c2=O)Cc2cc3c(CN(C)C)c(O)ccc3nc2-1 [Compound 3, Topotecan] | 9.7% | 24.3 days | 
Oc1cccc(-c2nc(N3CCOCC3)c3oc4ncccc4c3n2)c1 [Compound 4, PI-103] | 8.6% | 24.1 days | 
CC(C)CC(=O)Nc1[nH]nc2c1CN(C(=O)C1CCN(C)CC1)C2(C)C [Compound 5, PHA-793887] | 6.9% | 23.7 days | 
CC(C)[C@]12O[C@H]1[C@@H]1O[C@]13[C@]1(O[C@H]1C[C@H]1C4=C(CC[C@@]13C)C(=O)OC4)[C@@H]2O [Compound 6, Triptolide] | 10% | 24.4 days | 
COc1ccc(-c2ccc3c(N4CCOCC4)nc(N4C[C@@H](C)O[C@@H](C)C4)nc3n2)cc1CO [Compound 7, KU-0063794] | 10.6% | 24.5 days | 
CC(/C=C/C(=O)NO)=C\[C@@H](C)C(=O)c1ccc(N(C)C)cc1 [Compound 8, Trichostatin A] | 10% | 24.4 days | 
COc1cccc2c1C(=O)c1c(O)c3c(c(O)c1C2=O)C[C@@](O)(C(=O)CO)C[C@@H]3O[C@H]1C[C@H](N)[C@H](O)[C@H](C)O1 [Doxorubicin] |  |  | total lifetime dose above which myocardial damage may lead to congestive heart failure [2]: exceeds 550 mg/m^2; plasma levels of Aspartate Aminotransferase, AST [3]: strongly induce plasma levels of Aspartate Aminotransferase
CN(Cc1cnc2nc(N)nc(N)c2n1)c1ccc(C(=O)N[C@@H](CCC(=O)O)C(=O)O)cc1 [MTX, methotrexate] |  |  | development of arthritis [4]: strong inhibitory effect on the development of arthritis
O=C(c1ccc(F)cc1)C1CCN(CCn2c(=O)[nH]c3ccccc3c2=O)CC1 [ketanserin] |  |  | lifespan ([5]; fixed-diet conditions): did not affect lifespan; lifespan ([5]; flies allowed to chose nutrients): increased lifespan
CN1CCN2c3ccccc3Cc3ccccc3C2C1 (stereo not shown) [mianserin] |  |  | lifespan (prolongevity effect) [6]: prolongevity effect
